Measurements published in BigSolDB 2.1.

NC(N)=NC(N)=NCCc1ccccc1
solubility (mole fraction) (in 1,4-dioxane, 288.15 K): 0.000166 | solubility (mole fraction) (in 1,4-dioxane, 293.15 K): 0.000202 | solubility (mole fraction) (in 1,4-dioxane, 298.15 K): 0.000249 | solubility (mole fraction) (in 1,4-dioxane, 303.15 K): 0.000312 | solubility (mole fraction) (in 1,4-dioxane, 308.15 K): 0.000379 | solubility (mole fraction) (in 1,4-dioxane, 313.15 K): 0.00046 | solubility (mole fraction) (in 1,4-dioxane, 318.15 K): 0.000551 | solubility (mole fraction) (in 1,4-dioxane, 323.15 K): 0.00065 | solubility (mole fraction) (in DMF, 278.15 K): 0.0158 | solubility (mole fraction) (in DMF, 283.15 K): 0.0191 | solubility (mole fraction) (in DMF, 288.15 K): 0.0226 | solubility (mole fraction) (in DMF, 293.15 K): 0.0256 | solubility (mole fraction) (in DMF, 298.15 K): 0.0303 | solubility (mole fraction) (in DMF, 303.15 K): 0.0353 | solubility (mole fraction) (in DMF, 308.15 K): 0.0411 | solubility (mole fraction) (in DMF, 313.15 K): 0.0491 | solubility (mole fraction) (in DMF, 318.15 K): 0.0579 | solubility (mole fraction) (in DMF, 323.15 K): 0.0655 | solubility (mole fraction) (in DMSO, 293.15 K): 0.0217 | solubility (mole fraction) (in DMSO, 298.15 K): 0.025 | solubility (mole fraction) (in DMSO, 303.15 K): 0.0305 | solubility (mole fraction) (in DMSO, 308.15 K): 0.0359 | solubility (mole fraction) (in DMSO, 313.15 K): 0.0431 | solubility (mole fraction) (in DMSO, 318.15 K): 0.0508 | solubility (mole fraction) (in DMSO, 323.15 K): 0.0603 | solubility (mole fraction) (in NMP, 278.15 K): 0.0113 | solubility (mole fraction) (in NMP, 283.15 K): 0.014 | solubility (mole fraction) (in NMP, 288.15 K): 0.017 | solubility (mole fraction) (in NMP, 293.15 K): 0.0202 | solubility (mole fraction) (in NMP, 298.15 K): 0.0235 | solubility (mole fraction) (in NMP, 303.15 K): 0.028 | solubility (mole fraction) (in NMP, 308.15 K): 0.0337 | solubility (mole fraction) (in NMP, 313.15 K): 0.0409 | solubility (mole fraction) (in NMP, 318.15 K): 0.0486 | solubility (mole fraction) (in NMP, 323.15 K): 0.0579 | solubility (mole fraction) (in acetonitrile, 278.15 K): 0.000211 | solubility (mole fraction) (in acetonitrile, 283.15 K): 0.00026 | solubility (mole fraction) (in acetonitrile, 288.15 K): 0.000322 | solubility (mole fraction) (in acetonitrile, 293.15 K): 0.000398 | solubility (mole fraction) (in acetonitrile, 298.15 K): 0.000494 | solubility (mole fraction) (in acetonitrile, 303.15 K): 0.000596 | solubility (mole fraction) (in acetonitrile, 308.15 K): 0.00071 | solubility (mole fraction) (in acetonitrile, 313.15 K): 0.00084 | solubility (mole fraction) (in acetonitrile, 318.15 K): 0.00101 | solubility (mole fraction) (in acetonitrile, 323.15 K): 0.00119 | solubility (mole fraction) (in ethanol, 278.15 K): 0.00183 | solubility (mole fraction) (in ethanol, 283.15 K): 0.0022 | solubility (mole fraction) (in ethanol, 288.15 K): 0.00266 | solubility (mole fraction) (in ethanol, 293.15 K): 0.00322 | solubility (mole fraction) (in ethanol, 298.15 K): 0.00378 | solubility (mole fraction) (in ethanol, 303.15 K): 0.00449 | solubility (mole fraction) (in ethanol, 308.15 K): 0.00524 | solubility (mole fraction) (in ethanol, 313.15 K): 0.00614 | solubility (mole fraction) (in ethanol, 318.15 K): 0.00723 | solubility (mole fraction) (in ethanol, 323.15 K): 0.00847 | solubility (mole fraction) (in ethyl acetate, 278.15 K): 0.00157 | solubility (mole fraction) (in ethyl acetate, 283.15 K): 0.00184 | solubility (mole fraction) (in ethyl acetate, 288.15 K): 0.0022 | solubility (mole fraction) (in ethyl acetate, 293.15 K): 0.00265 | solubility (mole fraction) (in ethyl acetate, 298.15 K): 0.00318 | solubility (mole fraction) (in ethyl acetate, 303.15 K): 0.00379 | solubility (mole fraction) (in ethyl acetate, 308.15 K): 0.00445 | solubility (mole fraction) (in ethyl acetate, 313.15 K): 0.00521 | solubility (mole fraction) (in ethyl acetate, 318.15 K): 0.00603 | solubility (mole fraction) (in ethyl acetate, 323.15 K): 0.00695 | solubility (mole fraction) (in ethylene glycol, 278.15 K): 0.0033 | solubility (mole fraction) (in ethylene glycol, 283.15 K): 0.00366 | solubility (mole fraction) (in ethylene glycol, 288.15 K): 0.00417 | solubility (mole fraction) (in ethylene glycol, 293.15 K): 0.00481 | solubility (mole fraction) (in ethylene glycol, 298.15 K): 0.00567 | solubility (mole fraction) (in ethylene glycol, 303.15 K): 0.00677 | solubility (mole fraction) (in ethylene glycol, 308.15 K): 0.00774 | solubility (mole fraction) (in ethylene glycol, 313.15 K): 0.00919 | solubility (mole fraction) (in ethylene glycol, 318.15 K): 0.011 | solubility (mole fraction) (in ethylene glycol, 323.15 K): 0.0128 | solubility (mole fraction) (in isobutanol, 278.15 K): 0.000518 | solubility (mole fraction) (in isobutanol, 283.15 K): 0.00063 | solubility (mole fraction) (in isobutanol, 288.15 K): 0.000792 | solubility (mole fraction) (in isobutanol, 293.15 K): 0.00095 | solubility (mole fraction) (in isobutanol, 298.15 K): 0.00116 | solubility (mole fraction) (in isobutanol, 303.15 K): 0.00139 | solubility (mole fraction) (in isobutanol, 308.15 K): 0.00167 | solubility (mole fraction) (in isobutanol, 313.15 K): 0.00197 | solubility (mole fraction) (in isobutanol, 318.15 K): 0.00229 | solubility (mole fraction) (in isobutanol, 323.15 K): 0.00265 | solubility (mole fraction) (in isopropanol, 278.15 K): 0.000814 | solubility (mole fraction) (in isopropanol, 283.15 K): 0.000976 | solubility (mole fraction) (in isopropanol, 288.15 K): 0.00118 | solubility (mole fraction) (in isopropanol, 293.15 K): 0.00142 | solubility (mole fraction) (in isopropanol, 298.15 K): 0.00174 | solubility (mole fraction) (in isopropanol, 303.15 K): 0.00208 | solubility (mole fraction) (in isopropanol, 308.15 K): 0.00247 | solubility (mole fraction) (in isopropanol, 313.15 K): 0.00288 | solubility (mole fraction) (in isopropanol, 318.15 K): 0.00334 | solubility (mole fraction) (in isopropanol, 323.15 K): 0.00383 | solubility (mole fraction) (in methanol, 278.15 K): 0.00237 | solubility (mole fraction) (in methanol, 283.15 K): 0.0028 | solubility (mole fraction) (in methanol, 288.15 K): 0.00328 | solubility (mole fraction) (in methanol, 293.15 K): 0.00385 | solubility (mole fraction) (in methanol, 298.15 K): 0.00457 | solubility (mole fraction) (in methanol, 303.15 K): 0.00532 | solubility (mole fraction) (in methanol, 308.15 K): 0.00623 | solubility (mole fraction) (in methanol, 313.15 K): 0.00743 | solubility (mole fraction) (in methanol, 318.15 K): 0.00823 | solubility (mole fraction) (in methanol, 323.15 K): 0.0103 | solubility (mole fraction) (in n-butanol, 278.15 K): 0.000627 | solubility (mole fraction) (in n-butanol, 283.15 K): 0.000777 | solubility (mole fraction) (in n-butanol, 288.15 K): 0.000923 | solubility (mole fraction) (in n-butanol, 293.15 K): 0.00118 | solubility (mole fraction) (in n-butanol, 298.15 K): 0.00142 | solubility (mole fraction) (in n-butanol, 303.15 K): 0.00167 | solubility (mole fraction) (in n-butanol, 308.15 K): 0.00194 | solubility (mole fraction) (in n-butanol, 313.15 K): 0.00227 | solubility (mole fraction) (in n-butanol, 318.15 K): 0.00265 | solubility (mole fraction) (in n-butanol, 323.15 K): 0.00308 | solubility (mole fraction) (in n-propanol, 278.15 K): 0.000975 | solubility (mole fraction) (in n-propanol, 283.15 K): 0.00116 | solubility (mole fraction) (in n-propanol, 288.15 K): 0.00137 | solubility (mole fraction) (in n-propanol, 293.15 K): 0.00173 | solubility (mole fraction) (in n-propanol, 298.15 K): 0.00208 | solubility (mole fraction) (in n-propanol, 303.15 K): 0.00249 | solubility (mole fraction) (in n-propanol, 308.15 K): 0.0029 | solubility (mole fraction) (in n-propanol, 313.15 K): 0.00341 | solubility (mole fraction) (in n-propanol, 318.15 K): 0.00396 | solubility (mole fraction) (in n-propanol, 323.15 K): 0.00452 | solubility (mole fraction) (in water, 278.15 K): 0.000389 | solubility (mole fraction) (in water, 283.15 K): 0.000481 | solubility (mole fraction) (in water, 288.15 K): 0.000585 | solubility (mole fraction) (in water, 293.15 K): 0.000739 | solubility (mole fraction) (in water, 298.15 K): 0.000888 | solubility (mole fraction) (in water, 303.15 K): 0.00107 | solubility (mole fraction) (in water, 308.15 K): 0.00126 | solubility (mole fraction) (in water, 313.15 K): 0.00148 | solubility (mole fraction) (in water, 318.15 K): 0.00175 | solubility (mole fraction) (in water, 323.15 K): 0.00206
